From PubChem BioAssay (NCI) come the findings set out here.

Test in all cases: NCI anticancer screen, dose series, 48 h
For assay [1], the system named is NCI-H522 lung.
For assay [2], the system named is NCI/ADR-RES ovarian.
In assay [3] the test system is A549 NSCLC.
For assay [4], the system named is HCC-2998 colon.
For assay [5], the system named is HOP-62 NSCLC.
Assay [6] has as its system SF-295 CNS.
Assay [7] relates to CCRF-CEM leukemia.
For assay [8], the system named is M14 melanoma.
In assay [9] the test system is RPMI-8226 leukemia.
In assay [10] the test system is SNB-19 CNS.

The structures appear in SMILES notation.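 A five-concentration, 48-hour dose response in 96-well plates underlies each endpoint, interpolated linearly between surrounding concentrations. Definition used: TGI = concentration required for complete inhibition of growth.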

With `CCCC(=O)OC1CC(n2cc(F)c(=O)[nH]c2=O)OC1COP(=O)(OCC(Cl)(Cl)Cl)OCC(Cl)(Cl)Cl` (stereo not given), the TGI was 16.6 µM in assay [1]; more than 31.6 µM in assay [2]; more than 94.6 µM in [3]; 3.34 µM in assay [4]; more than 100 µM in assay [5]; 16.8 µM in [6]. Further, the TGI is 94.4 µM in [7], more than 31.6 µM in [8], 86.4 µM in [9] and more than 100 µM in assay [10].
As for `O=[N+]([O-])C(/C=C(\Cl)n1nnc2ccccc21)=C(/Cl)n1nnc2ccccc21`, the TGI in [1], in [2], in [3], in assay [4], in assay [5] and in assay [6] was more than 100 µM in each case. For the same molecule, the TGI in assay [7], in [8], in [9] and in assay [10] was more than 100 µM each time.
Turning to `c1c[nH]c(-c2ccc(-c3ccc[nH]3)c3nsnc23)c1`, the TGI was more than 100 µM in assay [1]; more than 93.2 µM in assay [2]; more than 70 µM in assay [3]; more than 100 µM in [4]; more than 80.1 µM in assay [5]; more than 100 µM in [6]. For the same molecule, the TGI in assay [7] is more than 35.3 µM; in assay [8] it was more than 63 µM; in [9] it was more than 52.6 µM; in [10], more than 100 µM.
For the molecule `N#Cc1c(-c2ccccc2)/c(=C\Nc2ccc(F)cc2)c(=O)n2c1nc1ccccc12`, the TGI was 34.3 µM in assay [1]; 64.9 µM in assay [2]; more than 100 µM in assay [3]; more than 100 µM in assay [4]; 10.8 µM in assay [5]; more than 100 µM in assay [6]. Also, the TGI is more than 100 µM in assay [7], 40.4 µM in assay [8], 38.5 µM in assay [9] and more than 100 µM in assay [10].
As to `CCN(CC)CCn1c(=O)c2cccnc2n2c3c(=O)n(C)c(=O)n(C)c3nc12`, the TGI in assay [1], in assay [2], in [3], in assay [4], in assay [5] and in assay [6] was more than 100 µM throughout. Besides, the TGI in [7], in [8], in assay [9] and in [10] was more than 100 µM throughout.
On to `CCOC(=O)C1=C(C)C2C=C(c3cccs3)CC(c3ccc(Cl)cc3)=C2OC1=O` (stereo not given), for which the TGI in assay [1] is more than 100 µM; in [2], more than 100 µM; in [3], more than 100 µM; in [4] it was 77.3 µM; in assay [5] it was more than 100 µM; in assay [6], more than 100 µM. Also, the TGI in assay [7] is 60.1 µM; in [8], more than 100 µM; in assay [9] it was 38 µM; in [10], more than 100 µM.
On to `CN(C)c1ccc(S(=O)Nc2ccccc2)cc1` (stereo not given), for which the TGI in assay [1], in [2], in assay [3], in assay [4], in assay [5] and in [6] was more than 100 µM in each case. The TGI in [7], in [8], in assay [9] and in [10] was more than 100 µM throughout.
As for `OCCc1ccsc1-c1sc(-c2cc(CCO)c(-c3sccc3CCO)s2)cc1CCO`, the TGI was 25.7 µM in [1]; 38.5 µM in [2]; more than 100 µM in [3]; 30.2 µM in assay [4]; 27.6 µM in assay [5]; 30.3 µM in assay [6]. In addition, the TGI in assay [7] was more than 100 µM; in assay [8], 23.7 µM; in assay [9] it was more than 100 µM; in [10] it was 36.5 µM.
As to `Cc1cc2c3c(nc4ccccc42)C(=O)c2ccccc2-c3n1`, the TGI in assay [1] was 14.4 µM; in [2], 38.5 µM; in assay [3], 44.9 µM; in assay [4], 53.9 µM; in [5] it was 23.5 µM; in [6], 60.4 µM. Moreover, the TGI in assay [7] was 73.3 µM; in assay [8] it was 27.3 µM; in assay [9] it was more than 100 µM; in assay [10], more than 100 µM.
Regarding `CCOC(=O)c1nc2c(nc1C(=O)OCC)C(=O)c1ccccc1C2=O`, the TGI in [1] is 4.23 µM; in assay [2], more than 35.1 µM; in [3] it was 9.47 µM; in assay [4] it was 2.97 µM; in assay [5] it was 3.78 µM; in [6], 1.55 µM. The TGI in [7] is more than 100 µM; in assay [8], 1.55 µM; in assay [9] it was 6.87 µM; in [10] it was 3.59 µM.
On to `Cc1ccc(C(=C2Sc3ccccc3S2)C(=C2Sc3ccccc3S2)c2ccc(C)s2)s1`, for which the TGI in assay [1], in assay [2], in assay [3], in assay [4], in assay [5] and in assay [6] was more than 100 µM in each case. Also, the TGI in assay [7], in assay [8], in [9] and in assay [10] was more than 100 µM in each case.
Take `CCCCC(C(=O)NCCNC(=O)CCC(=O)N(C)O)C(=O)NCCNC(=O)CCC(=O)N(C)O`: the TGI in [1], in assay [2], in assay [3], in [4], in assay [5] and in assay [6] was more than 100 µM each time. In addition, the TGI in assay [7], in [8], in [9] and in assay [10] was more than 100 µM each time.
As to `Cc1cn(C2CC(O)C(CO)O2)c(=O)[nH]c1=O` (stereo not given), the TGI in assay [1] is more than 4240 µM; in assay [2], more than 5000 µM; in assay [3] it was 4450 µM; in [4], more than 5000 µM; in [5], 4630 µM; in assay [6] it was more than 5000 µM. Besides, the TGI in [7] is 2390 µM; in [8], more than 5000 µM; in assay [9], more than 5000 µM; in assay [10] it was more than 2850 µM.
On to `COc1cccc2c1OC1(C=C2)Oc2ccccc2C(=O)N1C` (stereo not given), for which the TGI in [1] was more than 100 µM; in assay [2], 26.9 µM; in assay [3], more than 100 µM; in assay [4], 77.8 µM; in assay [5], more than 100 µM; in assay [6] it was 97.9 µM. The TGI in assay [7] was 46.2 µM; in assay [8], more than 100 µM; in [9], more than 100 µM; in assay [10], more than 100 µM.
`O=[N+]([O-])c1ccc(Oc2c(Cl)cc(S(=O)(=O)/N=C(\NO)Nc3ccc(Cl)cc3)cc2Cl)cc1`: the TGI was determined as 12.7 µM in [1]; 32.2 µM in assay [2]; 27.8 µM in assay [3]; 13.1 µM in assay [4]; 32.7 µM in assay [5]; 27.3 µM in [6]. Besides, the TGI in assay [7] turned out to be 24.5 µM; in [8], 25.6 µM; in [9], 22.8 µM; in assay [10] it was 29.2 µM.
In the case of `COc1ccc(NC(=O)CC(=O)N2N=C(N3c4ccccc4Sc4ccccc43)CC2c2ccccc2)cc1` (stereo not given), the TGI in assay [1], in assay [2], in assay [3], in assay [4], in [5] and in assay [6] was more than 100 µM in each case. Moreover, the TGI in assay [7], in [8], in [9] and in [10] was more than 100 µM throughout.
In the case of `O=C(O)c1ccccc1CC1Cc2ccccc2C1=O` (stereo not given), the TGI in assay [1], in assay [2], in assay [3], in [4], in assay [5] and in [6] was more than 100 µM each time. In addition, the TGI in assay [7], in [8], in assay [9] and in assay [10] was more than 100 µM each time.
For `Cc1nc(N)c(N2CCN([N+](=O)[O-])CC2)c(=O)[nH]1`, the TGI in [1], in [2], in [3], in [4], in [5] and in assay [6] was more than 100 µM throughout. Further, the TGI in assay [7], in assay [8], in [9] and in assay [10] was more than 100 µM throughout.
Regarding `COC(=O)C1CCC(=O)N1C(c1ccc(OC)cc1)c1ccc2c(c1)OCO2` (stereo not given), the TGI in [1] is more than 100 µM; in assay [2] it was more than 100 µM; in [3] it was more than 100 µM; in [4], more than 100 µM; in [5] it was more than 100 µM; in assay [6] it was 48 µM. Besides, the TGI in [7], in [8], in [9] and in assay [10] was more than 100 µM throughout.
With `Cc1ccc(S(=O)(=O)N/N=C/C2(c3ccccc3)c3ccccc3-c3ccccc32)cc1`, the TGI in assay [1] amounted to 28.6 µM; in assay [2], 24.6 µM; in [3], 19.8 µM; in assay [4], 26.3 µM; in assay [5] it was 32.1 µM; in assay [6], 16.1 µM. The TGI is more than 100 µM in [7], 23.3 µM in [8], 87.2 µM in [9] and 73 µM in [10].
As for `N#CC12C(=O)N=C(N)C1(C#N)C(c1ccco1)NC1=C2CCCC1` (stereo not given), the TGI in [1], in assay [2], in [3], in [4], in assay [5] and in [6] was more than 100 µM each time. In addition, the TGI in [7], in assay [8], in assay [9] and in assay [10] was more than 100 µM each time.
For `NC1=NCC(CN2CCOCC2)O1` (stereo not given), the TGI in [1], in assay [2], in [3], in assay [4], in assay [5] and in [6] was more than 100 µM each time. Moreover, the TGI in assay [7], in assay [8], in assay [9] and in assay [10] was more than 100 µM each time.
Regarding `CC1=NN(c2cccc(Cl)c2)C2(C1=C/C=C/c1ccccc1)C(Cl)C(=O)N2c1nc2ccccc2s1` (stereo not given), the TGI in assay [1] was 47.4 µM; in assay [2] it was more than 100 µM; in [3] it was more than 100 µM; in assay [4], 86.8 µM; in [5], more than 100 µM; in assay [6], more than 100 µM. Further, the TGI in [7] was more than 59.3 µM; in [8], more than 91.2 µM; in [9], 23.5 µM; in assay [10], more than 100 µM.
With `Cc1ccc(-c2[nH]c(=O)n(C3OC(CO)C(O)C(O)C3O)c(=O)c2C#N)cc1` (stereo not given), the TGI in assay [1], in assay [2], in [3], in [4], in assay [5] and in assay [6] was more than 100 µM each time. In addition, the TGI in [7], in assay [8], in [9] and in assay [10] was more than 100 µM in each case.
Regarding `COc1cccc2c(=O)oc(-c3ccc(C(C)(C)C)cc3)nc12`, the TGI in [1] is 89.6 µM; in assay [2] it was more than 100 µM; in [3] it was more than 100 µM; in [4], 33.5 µM; in assay [5] it was more than 100 µM; in assay [6], more than 100 µM. In addition, the TGI in assay [7], in [8], in assay [9] and in [10] was more than 100 µM each time.
On to `CC1OC(OC2C(OC(=O)[C@]34CCC(C)(C)C[C@H]3C3=CC[C@@H]5[C@@]6(C)CC[C@H](OC7OC(C(=O)O)C(O)C(O)C7O)C(C)(C)[C@@H]6CC[C@@]5(C)[C@]3(C)C[C@H]4O)OCC(O)C2O)C(O)C(OC2OCC(O)(CO)C2O)C1OC1OCC(O)C(O)C1O` (stereo not given in full), for which the TGI in [1] is 16.5 µM; in assay [2], 27.9 µM; in assay [3], 14.8 µM; in [4] it was 3.32 µM; in assay [5] it was 32.4 µM; in [6] it was 26.9 µM. Further, the TGI in [7] was 52.1 µM; in [8], 23.3 µM; in [9], 26 µM; in [10] it was 23.8 µM.
